Test results published in US7030138B2, “Benzamidine derivatives” (Sankyo Company, Limited, priority 2001, dated 2006).
Structures can show the parent of a compound that is named as a salt.

Experiments:
bovine trypsin = target: T1, bovine trypsin (Bos taurus, UniProt P00760); experiment: Determination of anti-trypsin activity (S-2222 coloring substrate, absorbance at 405 nm); assay type: biochemical; conditions: bovine trypsin 0.25 μg-protein/ml, S-2222 0.4 mM, Tris buffer pH 8.4, room temperature, 5 minutes; read-out: Inhibitory Action against Trypsin Activity (IC50 (nM))
T1 construct: purchased Sigma
T1 sequence (P00760 24-246): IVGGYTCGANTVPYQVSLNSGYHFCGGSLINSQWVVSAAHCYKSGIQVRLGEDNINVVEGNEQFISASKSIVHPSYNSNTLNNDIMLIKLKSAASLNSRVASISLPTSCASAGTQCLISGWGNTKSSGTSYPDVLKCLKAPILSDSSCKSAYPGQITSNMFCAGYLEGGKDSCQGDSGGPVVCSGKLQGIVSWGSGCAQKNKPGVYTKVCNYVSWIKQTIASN
Method: Determination of Anti-trypsin Activity
Anti-trypsin activity was determined according to methods described by Taniuchi et al. [Thromb. Haemost., 79, 543 (1998)], which were partially modified. S-2222, a coloring substrate (5 μl, final concentration: 0.4 mM, Daiichi Pure Chemicals Co., Ltd.) and the test compound (5 μl) were mixed with Tris hydrochloride buffered solution (50 mM, 85 μl, pH: 8.4) containing NaCl (0.9%). To this solution, bovine trypsin (5 μl, final concentration: 0.25 μg-protein/ml, Sigma) was added and the reaction was started. In the control group, distilled water was added to the Tris-buffered solution instead of the test compound. The reaction mixture (in total: 0.1 ml) was incubated at room temperature. Optical absorbance was continuously determined at 405 nm with a 96-well microplate reader (Model 550, Biorad) and increase in the absorbance for 5 minutes was calculated as an indicator of trypsin activity. To assess anti-trypsin activities of the test compounds, concentrations of the test compounds to inhibit the trypsin activity by 50% (IC50) were calculated.

human factor-Xa = target: T2, human factor-Xa (Homo sapiens, UniProt P00742); experiment: Determination of anti-factor Xa activity (S-2222 coloring substrate, absorbance at 405 nm); assay type: biochemical; conditions: human factor-Xa 0.25 unit/ml, S-2222 0.4 mM, Tris buffer pH 8.4, room temperature, 5 minutes; read-out: Inhibitory Action against Factor Xa Activity (IC50 (nM))
T2 construct: purchased Cosmobio Co., Ltd
Method: Determination of Anti-factor Xa Activity
Anti-factor Xa activity was determined according to methods described by Hara et al. [Thrombo. Haemost., 71, 314 (1994)], which were slightly modified. S-2222, a coloring substrate (0.4 mM, Daiichi Pure Chemicals Co., Ltd.) and the test compounds were mixed in Tris hydrochloride buffered solution (50 mM, pH: 8.4) containing NaCl (0.9%). To this solution, human factor-Xa (0.25 unit/ml, Cosmobio Co., Ltd.) was added and the reaction was started. In the control group, distilled water was added to the Tris-buffered solution instead of the test compound. The reaction mixture (in total: 0.1 ml) was incubated at room temperature for 5 minutes. Optical absorbance of the reaction mixture was continuously determined at 405 nm with a 96-well microplate reader (Model 550, Biorad) and increase in the absorbance for 5 minutes was calculated as an indicator of factor Xa activity. To assess anti-factor Xa activities of the test compounds, concentrations of the test compounds to inhibit the factor Xa activity by 50% (IC50) were calculated.

T2 sequence (P00742 235-488 limits assumed): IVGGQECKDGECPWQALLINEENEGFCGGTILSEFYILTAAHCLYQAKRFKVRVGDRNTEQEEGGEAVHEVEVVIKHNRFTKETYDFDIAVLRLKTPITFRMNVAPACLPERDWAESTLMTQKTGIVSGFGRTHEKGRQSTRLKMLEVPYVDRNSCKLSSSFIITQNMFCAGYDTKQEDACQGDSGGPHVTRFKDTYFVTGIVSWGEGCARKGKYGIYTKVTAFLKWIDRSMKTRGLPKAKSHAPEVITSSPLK
T2 sequence (P00742 41-179 partner limits assumed): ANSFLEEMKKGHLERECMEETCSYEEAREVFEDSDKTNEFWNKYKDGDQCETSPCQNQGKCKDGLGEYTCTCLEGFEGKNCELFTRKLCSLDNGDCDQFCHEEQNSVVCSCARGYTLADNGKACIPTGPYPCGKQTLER

Structure (SMILES)	IC50 (bovine trypsin) [nM]	IC50 (human factor-Xa) [nM]
CCC(=N)N1CCC(Oc2ccc(N(C/C=C/c3cccc(C(=N)N)c3)S(=O)(=O)CC(=O)O)cc2Cl)CC1 [Example 50, N-[3-(3-Amidinophenyl)-2-(E)-propenyl]-N-[3-chloro-4-[1-(1-iminopropyl)piperidin-4-yloxy]phenyl]sulfamoylacetic acid dihydrochloride]	1200	6.3
CCOC(=O)CS(=O)(=O)N(C/C=C/c1cccc(C(=N)N)c1)c1ccc(OC2CCN(C3=NCCC3)CC2)c(Cl)c1 [Example 53, Ethyl N-[3-(3-amidinophenyl)-2-(E)-propenyl]-N-[3-chloro-4-[1-(4,5-dihydro-3H-pyrrol-2-yl)piperidin-4-yloxy]phenyl]sulfamoylacetate dihydrochloride]	2100	6.8
N=C(N)c1cccc(/C=C/CN(c2ccc(OC3CCN(C4=NCCC4)CC3)c(Cl)c2)S(=O)(=O)CC(=O)O)c1 [Example 54, N-[3-(3-Amidinophenyl)-2-(E)-propenyl]-N-[3-chloro-4-[1-(4,5-dihydro-3H-pyrrol-2-yl)piperidin-4-yloxy]phenyl]sulfamoylacetic acid dihydrochloride]	2200	7
N=C(N)c1cccc(/C=C/CN(c2ccc(OC3CCN(C4=NCCC4)CC3)cc2)S(=O)(=O)CC(=O)O)c1 [Example 60, N-[3-(3-Amidinophenyl)-2-(E)-propenyl]-N-[4-[1-(4,5-dihydro-3H-pyrrol-2-yl)piperidin-4-yloxy]phenyl]sulfamoylacetic acid dihydrochloride]	3100	14
CCOC(=O)CS(=O)(=O)N(C/C=C/c1cccc(C(=N)N)c1)c1ccc(OC2CCN(C3=NCCC3)CC2)c(C)c1 [Example 65, Ethyl N-[3-(3-amidinophenyl)-2-(E)-propenyl]-N-[4-[1-(4,5-dihydro-3H-pyrrol-2-yl)piperidin-4-yloxy]-3-methylphenyl]sulfamoylacetate dihydrochloride]	2300	12
Cc1cc(N(C/C=C/c2cccc(C(=N)N)c2)S(=O)(=O)CC(=O)O)ccc1OC1CCN(C2=NCCC2)CC1 [Example 66, N-[3-(3-Amidinophenyl)-2-(E)-propenyl]-N-[4-[1-(4,5-dihydro-3H-pyrrol-2-yl)piperidin-4-yloxy-]-3-methylphenyl]sulfamoylacetic acid dihydrochloride]	5600	8.3
N=C(N)c1cccc(/C=C/CN(c2ccc(OC3CCN(C4=NCCC4)CC3)c(C(N)=O)c2)S(=O)(=O)CC(=O)O)c1 [Example 72, N-[3-(3-Amidinophenyl)-2-(E)-propenyl]-N-[3-carbamoyl-4-[1-(4,5-dihydro-3H-pyrrol-2-yl)piperidin-4-yloxy]phenyl]sulfamoylacetic acid dihydrochloride]	4400	9.8
CCOC(=O)CS(=O)(=O)N(C/C=C/c1cccc(C(=N)N)c1)c1ccc(OC2CCN(C3=NCCC3)CC2)c(C(F)(F)F)c1 [Example 77, Ethyl N-[3-(3-amidinophenyl)-2-(E)-propenyl]-N-[4-[1-(4,5-dihydro-3H-pyrrol-2-yl)piperidin-4-yloxy]-3-trifluoromethylphenyl]sulfamoylacetate dihydrochloride]	3700	12
N=C(N)c1cccc(/C=C/CN(c2ccc(OC3CCN(C4=NCCC4)CC3)c(C(F)(F)F)c2)S(=O)(=O)CC(=O)O)c1 [Example 78, N-[3-(3-Amidinophenyl)-2-(E)-propenyl]-N-[4-[1-(4,5-dihydro-3H-pyrrol-2-yl)piperidin-4-yloxy]-3-trifluoromethylphenyl]sulfamoylacetic acid dihydrochloride]	5300	11
CC/N=C/N1CCC(Oc2ccc(N(C/C=C/c3cccc(C(=N)N)c3)S(=O)(=O)CC(=O)O)cc2Cl)CC1 [Example 87, N-[3-(3-Amidinophenyl)-2-(E)-propenyl]-N-[3-chloro-4-[1-(N-ethylformimidoyl)piperidin-4-yloxy]phenyl]sulfamoylacetic acid dihydrochloride]	3500	13
N=C(N)c1cccc(/C=C/CN(c2ccc(OC3CCN(C4=NCCO4)CC3)c(Cl)c2)S(=O)(=O)CC(=O)O)c1 [Example 89, N-[3-(3-Amidinophenyl)-2-(E)-propenyl]-N-[3-chloro-4-[1-(4,5-dihydrooxazol-2-yl)piperidin-4-yloxy]phenyl]sulfamoylacetic acid dihydrochloride]	2000	11
